Assay results published in ChEMBL document CHEMBL1201862, “PubChem BioAssay data set” (2004).
The source made the active and inactive calls.

What was measured:
Cytochrome P450 2C19 = Cytochrome P450 2C19 (Homo sapiens, UniProt P33261); test: qHTS Assay for Inhibitors and Substrates of Cytochrome P450 2C19. [Related pubchem assays: 410 ]; type: ADME; conditions: read-out: Potency
[1] = antiviral protection against BTV-induced cell death – arbovirus, BSR cells, confirmation (AID 1250); type: functional;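 further: protection from viral cytopathic effect measured as cell viability by ATP luminescence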
[2] = Luminescence Cell-Based Dose Confirmation HTS to Identify Inhibitors of Platelet Dense Granule Release. [Related pubchem assays: 1663 (Primary HTS), 1678 (Summary of Project)]; type: functional
[3] = Late stage counterscreen results from the probe development effort to identify activators of signal transducer and activator of transcription 1 (STAT1): luminescence-based cell-based dose response assay to identify cytotoxic compounds.; type: functional
[4] = target: Luciferin 4-monooxygenase (Photinus pyralis, UniProt P08659); test: inhibition of purified Photinus pyralis luciferase – biochemical, luminescence, dose response (AID 1891)
[5] = target: Neuropeptide Y receptor type 1 (Homo sapiens, UniProt P25929); type: functional;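 further: HEK293 cells with a CNG channel challenged with NPY then isoproterenol; potency as antagonist that reverses NPY suppression of cAMP signal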
[6] = target: Neuropeptide Y receptor type 2 (Homo sapiens, UniProt P49146); type: functional, cell-based;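 further: HEK293 cells expressing the receptor and a CNG channel; stimulus was NPY near EC95 followed by isoproterenol to raise cAMP; antagonist potency measured as restoring cAMP signal that NPY suppresses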
Mucolipin-3 = Mucolipin-3 (Homo sapiens, UniProt Q8TDD5); test: Dose response cell-based high-throughput screening assay for agonists of the transient receptor potential channel ML3 (TRPML3). [Related pubchem assays: 1526, 1424, 1448 ]; type: functional
Ion channel NompC = Ion channel NompC (Danio rerio, UniProt Q7T1G6); test: Fluorescence counterscreen assay for TRPML3 agonists: dose response cell-based high-throughput screening assay to identify agonists of the transient receptor potential channel N1 (TRPN1). [Related pubchem assays: 1526, 1424, 1448 ]; type: functional
[7] = target: Sphingosine 1-phosphate receptor 2 (Homo sapiens, UniProt O95136); test: Dose Response Cell Based Assay for Agonists of the S1P2 Receptor of Purchased Analogues. [Related pubchem assays: 729, 843, 854, 736 ]; type: functional
[8] = fluconazole-exposed Candida albicans growth modulators – fluorescence, retest, confirmation (AID 2467); type: functional, cell-based
[9] = NIH-3T3 fibroblast cytotoxicity, dose response, cytotoxicity control, cell-based, fluorescence, Alamar Blue, secondary assay (AID 2327); type: functional;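 further: NIH-3T3 mouse fibroblasts cultured with fluconazole at 8 µg/mL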
[10] = Counterscreen for AddAB inhibitors: absorbance-based bacterial cell-based high throughput dose response assay for inhibitors of bacterial viability. [Related pubchem assays (depositor defined):AID435030, AID449728, AID449731, AID488942, AID488955, AID488956]; type: functional
Exodeoxyribonuclease V = Exodeoxyribonuclease V (Escherichia coli (strain K12), UniProt P04993+P07648+P08394); test: RecBCD inhibition via phage-restricted bacterial growth – absorbance, V66 E. coli, mutant T4 phage, counter-screen for AddAB inhibitor project, dose response (AID 492957); type: functional, cell-based, Escherichia coli str. K-12 substr. MG1655
Cytochrome P450 1A2 = target: T1, Cytochrome P450 1A2 (Homo sapiens, UniProt P05177);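 further: PubChem cytochrome P450 panel assay, CYP1A2 panel member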
T1 sequence (P05177 whole entry): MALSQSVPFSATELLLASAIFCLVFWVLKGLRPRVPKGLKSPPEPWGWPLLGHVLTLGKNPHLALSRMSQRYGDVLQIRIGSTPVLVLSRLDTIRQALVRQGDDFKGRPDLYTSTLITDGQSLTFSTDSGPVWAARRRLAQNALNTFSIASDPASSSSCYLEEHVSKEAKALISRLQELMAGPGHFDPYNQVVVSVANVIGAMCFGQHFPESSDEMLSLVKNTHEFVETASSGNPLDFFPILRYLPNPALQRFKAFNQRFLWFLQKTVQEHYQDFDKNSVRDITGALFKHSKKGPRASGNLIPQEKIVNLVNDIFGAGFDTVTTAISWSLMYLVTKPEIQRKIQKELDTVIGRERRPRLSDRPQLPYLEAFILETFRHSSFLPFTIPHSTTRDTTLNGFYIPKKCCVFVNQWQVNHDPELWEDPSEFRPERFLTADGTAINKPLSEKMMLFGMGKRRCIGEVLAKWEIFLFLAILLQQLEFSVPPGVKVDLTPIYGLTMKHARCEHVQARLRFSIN

[11] = target: Voltage-gated inwardly rectifying potassium channel KCNH2 (Homo sapiens, UniProt Q12809); test: concentration-dependent hERG rescue from blockers – cell-based, thallium flux, dose response (AID 2121); type: ADME
[12] = loss of viability in HepG2 cells – cell-based, CellTiter-Glo, cherry-picked, cytotoxicity control for Shn3 inhibitor project, dose response (AID 624134); type: functional
[13] = Luminescence Cell-Based Dose Retest to Confirm Inhibitors of Cancer Stem Cells. [Related pubchem assays (depositor defined):AID2717, AID2721]; type: functional; conditions: Homo sapiens
Cytochrome P450 2D6 = Cytochrome P450 2D6 (Homo sapiens, UniProt P10635);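 further: CYP2D6 member of a cytochrome P450 panel assay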
[14] = non-specific 3'UTR reporter inhibition in Clone20-Shn3RL – cell-based, Renilla luciferase, cherry-picked, counter-screen for Shn3 inhibitor project, dose response (AID 624133); type: functional
[15] = Luminescence Cell-Based Dose Response HTS to Identify Inhibitors of 5'UTR Stem-Loop Driven Prion Protein mRNA Translation in H4 Neuroglioblastoma Cells. [Related pubchem assays: 1827 (Project Summary), 1813 (Primary HTS)]; type: functional
[16] = reduction of Shn3 3'UTR-driven luciferase in osteoblasts – cell-based, Clone20 osteoblasts, firefly luciferase, cherry-picked, dose response (AID 624132); type: functional;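 further: firefly luciferase luminescence from reporter carrying the Shn3 3'UTR in osteoblasts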
[17] = luciferase reporter signal suppression in cells – H4 neuroglioma cells, luminescence, dose response (AID 1990); type: functional, cell-based
[18] = alpha-synuclein stem-loop luciferase translation blockers – H4 neuroglioma cells, luminescence, confirmation (AID 1988); type: functional, cell-based
Genome polyprotein = Genome polyprotein (Hepatitis C virus, UniProt Q2Q167); test: disruption of hepatitis C core self-association – biochemical, TR-FRET, dose response (AID 2159); design: species or system Hepacivirus hominis;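 further: blocks dimerization of HCV core protein measured by TR-FRET between tagged core106 pairs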
[19] = target: T2, Probable nicotinate-nucleotide adenylyltransferase (Staphylococcus aureus (strain N315), UniProt P65502); type: functional, Staphylococcus aureus subsp. aureus N315; conditions: read-out: IC50_Mean;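 on IC50 Mean: confirmatory dose-response retesting of NadD inhibitor hits first found in an ultra-high-throughput screen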
[20] = target: T3, Carboxy-terminal domain RNA polymerase II polypeptide A small phosphatase 1 (Homo sapiens, UniProt Q9GZU7); test: CTDSP1 inhibitors, concentration-response, biochemical, absorbance readout, ultra-high-throughput screen actives (AID 540297); type: functional
T3 sequence (Q9GZU7 whole entry): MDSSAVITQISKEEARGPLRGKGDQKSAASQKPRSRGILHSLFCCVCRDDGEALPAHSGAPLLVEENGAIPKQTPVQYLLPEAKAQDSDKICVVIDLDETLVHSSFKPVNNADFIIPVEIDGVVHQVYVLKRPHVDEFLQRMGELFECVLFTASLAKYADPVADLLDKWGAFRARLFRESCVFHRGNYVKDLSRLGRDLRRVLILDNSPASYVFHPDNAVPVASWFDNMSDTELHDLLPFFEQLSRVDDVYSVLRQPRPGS

[21] = target: T2, Probable nicotinate-nucleotide adenylyltransferase; type: functional, Staphylococcus aureus subsp. aureus N315
[22] = Fluorescence Cell-Based Dose Response to Identify Inhibitors of Thrombin Receptor-Activating Peptide SFLLRN-Mediated P-Selectin Induction on Platelets. [Related pubchem assays: 1663 (Primary HTS), 1889 (retest at dose ), 1891 (counterscreen), 1678 (Project Summary)]; type: functional
[23] = target: Peroxisome proliferator-activated receptor gamma/Nuclear receptor corepressor 2 (Homo sapiens, UniProt P37231+Q9Y618); test: Counterscreen for NR2E3 inverse agonists: TR-FRET-based biochemical high throughput dose response assay to identify inverse agonists of the interaction between peroxisome proliferator-activated receptor gamma (PPARg) and nuclear receptor co-repressor 2 (NCOR2).; type: functional
[24] = target: Photoreceptor-specific nuclear receptor (Homo sapiens, UniProt Q9Y5X4); test: ligands suppressing NR2E3 nuclear receptor activity – biochemical, TR-FRET, dose response (AID 463256); type: functional
NADPH oxidase 1 = NADPH oxidase 1 (Homo sapiens, UniProt Q9Y5S8); type: functional, cell-based;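 further: Cell-based assay with luminescence read-out, IC50 derived from inhibitor dose-response curves; intracellular ROS from endogenous NOX1 in intact HT29 colon cancer cells; potency of inhibitors that lower the ROS luminescence signal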
[25] = target: T4, RNA-binding protein pos-1 (Caenorhabditis elegans, UniProt G5EF15); test: disruptors of C. elegans POS-1 RNA interaction – biochemical, fluorescence polarization, dose response (AID 1964);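 further: purified POS-1 fused to maltose binding protein made in E. coli; potency of compounds blocking POS-1 binding to fluorescent RNA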
T4 sequence (G5EF15 whole entry): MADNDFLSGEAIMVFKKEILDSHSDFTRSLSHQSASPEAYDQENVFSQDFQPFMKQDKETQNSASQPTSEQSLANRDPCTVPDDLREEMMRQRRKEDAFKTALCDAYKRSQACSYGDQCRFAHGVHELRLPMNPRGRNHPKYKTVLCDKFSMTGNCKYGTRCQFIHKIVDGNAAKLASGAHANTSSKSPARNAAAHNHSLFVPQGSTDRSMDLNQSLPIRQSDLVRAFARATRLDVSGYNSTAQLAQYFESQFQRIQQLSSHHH

[26] = target: T5, Zinc finger protein mex-5 (Caenorhabditis elegans, UniProt Q9XUB2); test: potency of MEX-5 RNA-binding blockers – biochemical, C. elegans, fluorescence polarization, dose response (AID 1960)
T5 sequence (Q9XUB2 whole entry): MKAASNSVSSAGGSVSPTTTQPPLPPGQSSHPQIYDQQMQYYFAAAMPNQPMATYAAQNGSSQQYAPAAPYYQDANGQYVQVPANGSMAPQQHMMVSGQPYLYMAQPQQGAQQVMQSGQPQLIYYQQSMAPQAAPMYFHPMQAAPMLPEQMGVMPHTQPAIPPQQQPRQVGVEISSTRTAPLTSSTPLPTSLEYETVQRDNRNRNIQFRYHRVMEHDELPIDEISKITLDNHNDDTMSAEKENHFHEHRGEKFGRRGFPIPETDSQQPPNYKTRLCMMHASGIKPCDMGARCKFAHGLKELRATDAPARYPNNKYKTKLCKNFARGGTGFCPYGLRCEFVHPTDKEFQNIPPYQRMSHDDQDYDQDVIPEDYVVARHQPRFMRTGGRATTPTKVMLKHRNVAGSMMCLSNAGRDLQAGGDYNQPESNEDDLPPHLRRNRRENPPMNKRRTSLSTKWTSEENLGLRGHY

[27] = M. tuberculosis H37Rv growth inhibitors, H37Rv strain (AID 1626); type: functional
[28] = target: T6, Heat shock factor protein 1 (Mus musculus, UniProt P38532); test: decrease of HSF1-responsive luciferase luminescence – cell-based, NIH3T3, dose retest, confirmation (AID 2382); type: functional;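 further: NIH3T3 fibroblasts with HSF1-driven luciferase reporter stressed by proteasome inhibitor MG132; luminescence from HSF1-driven luciferase expression after 8 hours of MG132 stress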
T6 sequence (P38532 whole entry): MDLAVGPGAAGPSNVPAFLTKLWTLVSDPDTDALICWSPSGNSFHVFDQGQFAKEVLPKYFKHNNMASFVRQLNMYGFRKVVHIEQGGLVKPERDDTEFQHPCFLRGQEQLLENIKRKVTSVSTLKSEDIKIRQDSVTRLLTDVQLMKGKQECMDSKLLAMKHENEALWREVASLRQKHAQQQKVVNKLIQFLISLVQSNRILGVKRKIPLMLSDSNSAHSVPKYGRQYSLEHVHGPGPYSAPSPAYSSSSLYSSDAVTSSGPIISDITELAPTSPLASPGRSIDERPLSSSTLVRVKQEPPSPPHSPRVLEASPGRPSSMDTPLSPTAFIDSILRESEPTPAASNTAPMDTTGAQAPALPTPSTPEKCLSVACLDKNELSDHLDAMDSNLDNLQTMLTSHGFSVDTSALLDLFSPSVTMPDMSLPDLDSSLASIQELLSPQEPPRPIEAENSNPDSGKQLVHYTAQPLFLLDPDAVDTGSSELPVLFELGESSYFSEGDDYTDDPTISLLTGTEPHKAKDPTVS

Chain of Luciferin 4-monooxygenase (P08659 whole entry): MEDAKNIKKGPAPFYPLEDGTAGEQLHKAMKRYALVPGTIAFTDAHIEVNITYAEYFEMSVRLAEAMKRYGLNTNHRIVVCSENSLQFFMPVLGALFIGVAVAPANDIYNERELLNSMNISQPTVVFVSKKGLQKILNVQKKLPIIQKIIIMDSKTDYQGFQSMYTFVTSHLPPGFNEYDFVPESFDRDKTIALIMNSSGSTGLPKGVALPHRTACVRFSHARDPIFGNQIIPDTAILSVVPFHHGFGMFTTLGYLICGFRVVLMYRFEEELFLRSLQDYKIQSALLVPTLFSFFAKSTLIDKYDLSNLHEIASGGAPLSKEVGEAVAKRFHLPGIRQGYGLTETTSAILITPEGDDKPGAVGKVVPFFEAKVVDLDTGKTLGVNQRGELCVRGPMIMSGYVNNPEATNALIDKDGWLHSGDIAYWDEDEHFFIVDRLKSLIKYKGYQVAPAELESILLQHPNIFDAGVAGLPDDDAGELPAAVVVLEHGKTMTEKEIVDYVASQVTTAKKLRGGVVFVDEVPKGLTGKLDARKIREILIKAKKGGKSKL
T2 sequence (P65502 whole entry, the tested form may be a part): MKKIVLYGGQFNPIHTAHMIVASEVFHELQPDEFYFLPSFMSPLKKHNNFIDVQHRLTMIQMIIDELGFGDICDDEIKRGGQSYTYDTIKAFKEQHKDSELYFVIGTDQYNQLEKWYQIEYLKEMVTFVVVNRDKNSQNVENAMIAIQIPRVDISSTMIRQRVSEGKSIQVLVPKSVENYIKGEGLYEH
Chain of Peroxisome proliferator-activated receptor gamma/Nuclear receptor corepressor 2 (P37231 whole entry): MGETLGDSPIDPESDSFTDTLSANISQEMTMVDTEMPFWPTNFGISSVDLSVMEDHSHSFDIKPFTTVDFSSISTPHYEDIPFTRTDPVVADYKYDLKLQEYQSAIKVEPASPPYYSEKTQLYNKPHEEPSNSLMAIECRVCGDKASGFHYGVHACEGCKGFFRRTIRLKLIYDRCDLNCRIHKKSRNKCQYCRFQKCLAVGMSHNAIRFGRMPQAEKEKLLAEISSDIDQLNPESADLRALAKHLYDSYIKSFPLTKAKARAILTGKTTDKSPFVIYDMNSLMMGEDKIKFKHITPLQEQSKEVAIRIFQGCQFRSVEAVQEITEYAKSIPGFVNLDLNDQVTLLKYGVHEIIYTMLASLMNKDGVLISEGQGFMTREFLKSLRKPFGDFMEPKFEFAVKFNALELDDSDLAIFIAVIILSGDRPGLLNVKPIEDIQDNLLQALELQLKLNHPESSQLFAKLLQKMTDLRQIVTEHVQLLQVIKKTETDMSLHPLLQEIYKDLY
Chain of Peroxisome proliferator-activated receptor gamma/Nuclear receptor corepressor 2 (Q9Y618 whole entry): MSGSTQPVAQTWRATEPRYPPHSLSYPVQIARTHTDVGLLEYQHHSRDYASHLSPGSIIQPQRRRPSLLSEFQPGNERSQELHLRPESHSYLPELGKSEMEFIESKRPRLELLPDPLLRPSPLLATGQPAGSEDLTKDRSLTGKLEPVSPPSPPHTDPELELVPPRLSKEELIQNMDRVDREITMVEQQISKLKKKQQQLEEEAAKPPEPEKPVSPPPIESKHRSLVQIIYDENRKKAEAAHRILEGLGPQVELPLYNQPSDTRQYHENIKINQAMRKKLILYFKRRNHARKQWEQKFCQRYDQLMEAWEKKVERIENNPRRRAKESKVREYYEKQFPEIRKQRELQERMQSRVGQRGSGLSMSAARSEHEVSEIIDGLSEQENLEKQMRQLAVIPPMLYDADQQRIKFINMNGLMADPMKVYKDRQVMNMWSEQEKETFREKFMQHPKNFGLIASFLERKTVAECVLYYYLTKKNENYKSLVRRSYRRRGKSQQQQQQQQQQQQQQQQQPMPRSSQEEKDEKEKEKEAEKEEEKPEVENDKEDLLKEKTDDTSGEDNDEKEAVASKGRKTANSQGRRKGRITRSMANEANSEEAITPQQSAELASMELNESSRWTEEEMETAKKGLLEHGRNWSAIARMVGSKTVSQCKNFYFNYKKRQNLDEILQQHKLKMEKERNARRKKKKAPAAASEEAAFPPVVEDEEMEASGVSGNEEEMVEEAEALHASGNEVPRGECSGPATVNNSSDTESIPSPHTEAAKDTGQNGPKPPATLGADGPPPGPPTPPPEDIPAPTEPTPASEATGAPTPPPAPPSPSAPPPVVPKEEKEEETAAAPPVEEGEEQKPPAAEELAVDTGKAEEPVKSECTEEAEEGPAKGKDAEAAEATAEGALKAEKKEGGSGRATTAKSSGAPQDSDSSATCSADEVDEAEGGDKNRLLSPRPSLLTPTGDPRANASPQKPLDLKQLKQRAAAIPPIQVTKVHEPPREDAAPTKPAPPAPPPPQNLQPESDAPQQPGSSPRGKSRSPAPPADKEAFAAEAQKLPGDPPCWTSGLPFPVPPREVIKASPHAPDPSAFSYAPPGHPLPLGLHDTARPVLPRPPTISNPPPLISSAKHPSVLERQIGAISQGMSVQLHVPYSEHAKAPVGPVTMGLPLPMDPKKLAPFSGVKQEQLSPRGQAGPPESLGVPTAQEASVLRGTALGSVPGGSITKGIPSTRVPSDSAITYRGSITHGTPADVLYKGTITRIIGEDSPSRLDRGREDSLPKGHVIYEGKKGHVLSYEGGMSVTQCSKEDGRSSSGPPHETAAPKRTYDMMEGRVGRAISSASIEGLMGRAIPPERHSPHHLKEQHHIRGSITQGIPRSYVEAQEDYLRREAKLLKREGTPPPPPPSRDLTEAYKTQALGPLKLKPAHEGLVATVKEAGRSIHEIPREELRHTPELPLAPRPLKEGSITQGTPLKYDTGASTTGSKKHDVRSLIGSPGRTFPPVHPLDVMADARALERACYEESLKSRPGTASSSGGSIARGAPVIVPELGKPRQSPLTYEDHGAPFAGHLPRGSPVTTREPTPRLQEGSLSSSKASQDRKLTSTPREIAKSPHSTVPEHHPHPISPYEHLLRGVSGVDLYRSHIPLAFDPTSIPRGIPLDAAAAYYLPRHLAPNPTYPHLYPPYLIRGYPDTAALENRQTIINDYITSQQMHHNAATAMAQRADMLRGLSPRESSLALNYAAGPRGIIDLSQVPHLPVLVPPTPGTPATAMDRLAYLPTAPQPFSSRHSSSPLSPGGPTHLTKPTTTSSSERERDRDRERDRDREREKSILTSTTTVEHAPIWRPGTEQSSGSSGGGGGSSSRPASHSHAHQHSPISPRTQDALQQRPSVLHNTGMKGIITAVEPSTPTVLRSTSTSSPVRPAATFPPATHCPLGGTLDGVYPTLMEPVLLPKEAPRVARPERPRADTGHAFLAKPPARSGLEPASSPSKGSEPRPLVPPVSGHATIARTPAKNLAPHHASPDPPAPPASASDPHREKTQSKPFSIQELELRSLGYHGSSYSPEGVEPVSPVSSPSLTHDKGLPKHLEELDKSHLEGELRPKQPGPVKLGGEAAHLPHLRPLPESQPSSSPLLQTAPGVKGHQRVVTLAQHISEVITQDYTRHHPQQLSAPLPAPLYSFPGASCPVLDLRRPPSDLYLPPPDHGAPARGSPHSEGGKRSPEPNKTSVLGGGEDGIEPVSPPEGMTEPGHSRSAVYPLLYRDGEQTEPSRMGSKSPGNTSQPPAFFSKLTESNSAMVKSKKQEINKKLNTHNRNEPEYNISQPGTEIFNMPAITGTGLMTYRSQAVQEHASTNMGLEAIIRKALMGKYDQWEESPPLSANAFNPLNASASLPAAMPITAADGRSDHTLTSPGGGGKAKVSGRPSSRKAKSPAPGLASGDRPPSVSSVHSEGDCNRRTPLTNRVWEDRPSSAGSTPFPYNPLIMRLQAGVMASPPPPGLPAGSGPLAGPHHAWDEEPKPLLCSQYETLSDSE
Chain of Neuropeptide Y receptor type 2 (P49146 whole entry): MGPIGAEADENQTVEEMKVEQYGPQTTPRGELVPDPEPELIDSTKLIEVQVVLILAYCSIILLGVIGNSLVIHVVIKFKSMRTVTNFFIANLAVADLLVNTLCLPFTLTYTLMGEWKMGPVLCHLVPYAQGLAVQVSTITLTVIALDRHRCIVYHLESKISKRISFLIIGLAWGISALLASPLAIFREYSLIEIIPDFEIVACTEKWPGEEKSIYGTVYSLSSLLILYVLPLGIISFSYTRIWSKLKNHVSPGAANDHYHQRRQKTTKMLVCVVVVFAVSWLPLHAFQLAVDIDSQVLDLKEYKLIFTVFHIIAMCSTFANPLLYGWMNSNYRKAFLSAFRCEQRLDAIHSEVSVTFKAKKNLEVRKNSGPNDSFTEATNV
Chain of Cytochrome P450 2D6 (P10635 whole entry): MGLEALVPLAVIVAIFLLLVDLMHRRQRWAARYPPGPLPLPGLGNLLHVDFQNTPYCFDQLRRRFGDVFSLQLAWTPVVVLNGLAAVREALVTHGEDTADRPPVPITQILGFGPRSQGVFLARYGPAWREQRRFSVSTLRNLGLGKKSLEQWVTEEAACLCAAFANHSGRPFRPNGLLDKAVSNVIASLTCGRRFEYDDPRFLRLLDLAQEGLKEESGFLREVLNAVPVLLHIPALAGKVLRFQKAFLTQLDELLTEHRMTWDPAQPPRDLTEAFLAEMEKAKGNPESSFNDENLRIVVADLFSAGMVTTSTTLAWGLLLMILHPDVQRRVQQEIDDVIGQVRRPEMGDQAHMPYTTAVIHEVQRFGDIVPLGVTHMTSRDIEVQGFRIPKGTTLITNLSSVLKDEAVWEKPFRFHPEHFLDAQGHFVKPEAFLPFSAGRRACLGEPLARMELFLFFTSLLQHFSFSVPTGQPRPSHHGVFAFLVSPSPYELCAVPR
Chain of Photoreceptor-specific nuclear receptor (Q9Y5X4 whole entry): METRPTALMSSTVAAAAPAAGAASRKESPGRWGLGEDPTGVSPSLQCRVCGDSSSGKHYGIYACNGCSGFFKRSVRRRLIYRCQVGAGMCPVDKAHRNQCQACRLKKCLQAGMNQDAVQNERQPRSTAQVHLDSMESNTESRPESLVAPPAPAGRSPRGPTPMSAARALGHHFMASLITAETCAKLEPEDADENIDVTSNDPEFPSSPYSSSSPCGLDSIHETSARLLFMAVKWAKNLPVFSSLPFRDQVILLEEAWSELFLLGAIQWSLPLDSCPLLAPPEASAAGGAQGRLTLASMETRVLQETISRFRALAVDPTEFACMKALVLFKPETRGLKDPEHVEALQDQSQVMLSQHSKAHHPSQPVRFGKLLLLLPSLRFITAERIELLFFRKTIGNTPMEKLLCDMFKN

CC(C)C[C@@H](CC(=O)N[C@H](CC(=O)N[C@@H]1CCCC[C@H]1C(=O)N[C@H](CC(=O)N[C@@H](CCC(=O)O)CC(=O)O)CC(C)C)C(C)C)NC(=O)[C@@H]1CNCC[C@H]1N
AC50 (Cytochrome P450 2C19): 31.6 µM (inconclusive)

COc1ccc(-c2c3c(cc(C)[n+]2[O-])oc2ccc(OC)cc23)cc1
IC50 [1]: 22 µM (active)

O=C(/C=C/Nc1ccccc1F)c1ccc(Br)cc1
EC50 [2]: > 112 µM (not active)
IC50 [3]: > 55.7 µM (not active)
EC50 [4]: 74.5 µM (active)

COc1ccc(-c2nc(C#N)c(NC(C)c3ccccc3)o2)cc1OC (stereo not drawn)
IC50 [5]: 7.77 µM (active)
IC50 [6]: 3.55 µM (active)

COc1cc(S(=O)(=O)N(C)C2CCCCC2)c(C)cc1C
EC50 (Mucolipin-3): 3.06 µM (active)
EC50 (Ion channel NompC): > 29.9 µM (not active)

Cc1cc(C(=O)CSc2ncccn2)c(C)n1Cc1ccccc1
EC50 [7]: > 30 µM (not active)

Cc1cc([N+](=O)[O-])ccc1-c1ccc(C2Nc3ccccc3C(=O)N2O)o1 (stereo not drawn)
EC50 [8]: 1.31 µM (active)
EC50 [9]: > 160 µM (inconclusive)
IC50 [10]: > 119 µM (inactive)
IC50 (Exodeoxyribonuclease V): > 119 µM (inactive)
AC50 (Cytochrome P450 1A2): 25.1 µM (inconclusive)
EC50 [11]: 2.58 µM (active)
AC50 [12]: 32.9 µM (active)
AC50 [13]: 5.3 µM (active)
AC50 (Cytochrome P450 2D6): 20 µM (inconclusive)
AC50 [14]: 11.3 µM (active)
EC50 [15]: 10.4 µM (active)
AC50 [16]: 3.32 µM (active)
EC50 [17]: 10.3 µM (active)
EC50 [18]: 8.61 µM (active)

Cc1ccc(NC(=O)c2cc(-c3ccco3)nc3ccccc23)cc1S(=O)(=O)N1CCOCC1
IC50 (Genome polyprotein): > 49.8 µM (not active)
IC50 [19]: 26.6 µM (active)
IC50 [20]: 5.51 µM (active)
IC50 [21]: 8.01 µM (active)

COc1cc2c(cc1OC)-c1cc(N3CCCCCC3)nc(=O)n1CC2
EC50 [22]: < 0.3 µM (active)
EC50 [2]: 1.66 µM (active)
EC50 [4]: > 112 µM (not active)

Cn1c(SCC(=O)Nc2cccc(F)c2)nnc1-c1cc2ccccc2o1
IC50 [23]: 1.67 µM (active)
IC50 [24]: 2.61 µM (active)

O=[N+]([O-])c1ccc(-c2nc(-c3ccccc3)c(-c3ccccc3)[nH]2)cc1
IC50 (NADPH oxidase 1): > 17 µM (not active)

COc1ccc(/N=C/c2c(O)ccc3ccccc23)cc1
EC50 [25]: > 300 µM (not active)
EC50 [26]: > 300 µM (not active)
IC50 [27]: > 100 µM (active)
EC50 [28]: 35.1 µM (active)
